Read-outs that look alike come from different tables or passages of the source.
How the values were obtained:
EGFR = EGFR (Homo sapiens, UniProt P00533); assay: ADP-Glo kinase assay, EGFR; format: biochemical; parameters: purchased BPS Bioscience (assay run externally by the vendor)
aurora A kinase (AURKA) = target: T1, aurora A kinase (AURKA) (Homo sapiens, UniProt O14965); assay: ADP-Glo kinase assay, Aurora A; format: biochemical
T1 construct: purchased BPS Bioscience (assay run externally by the vendor)
T1 sequence (O14965 1-403): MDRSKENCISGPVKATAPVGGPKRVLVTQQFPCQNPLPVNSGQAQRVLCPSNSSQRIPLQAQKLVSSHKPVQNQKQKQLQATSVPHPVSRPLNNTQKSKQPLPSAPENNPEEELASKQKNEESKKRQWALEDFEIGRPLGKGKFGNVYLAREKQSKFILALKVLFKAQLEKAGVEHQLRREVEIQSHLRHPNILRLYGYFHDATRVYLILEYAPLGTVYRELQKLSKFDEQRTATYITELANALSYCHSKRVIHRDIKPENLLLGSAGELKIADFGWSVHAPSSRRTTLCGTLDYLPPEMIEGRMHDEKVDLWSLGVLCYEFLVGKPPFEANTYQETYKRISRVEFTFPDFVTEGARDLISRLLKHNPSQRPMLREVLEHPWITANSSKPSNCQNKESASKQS

Chain of EGFR (P00533 25-1210): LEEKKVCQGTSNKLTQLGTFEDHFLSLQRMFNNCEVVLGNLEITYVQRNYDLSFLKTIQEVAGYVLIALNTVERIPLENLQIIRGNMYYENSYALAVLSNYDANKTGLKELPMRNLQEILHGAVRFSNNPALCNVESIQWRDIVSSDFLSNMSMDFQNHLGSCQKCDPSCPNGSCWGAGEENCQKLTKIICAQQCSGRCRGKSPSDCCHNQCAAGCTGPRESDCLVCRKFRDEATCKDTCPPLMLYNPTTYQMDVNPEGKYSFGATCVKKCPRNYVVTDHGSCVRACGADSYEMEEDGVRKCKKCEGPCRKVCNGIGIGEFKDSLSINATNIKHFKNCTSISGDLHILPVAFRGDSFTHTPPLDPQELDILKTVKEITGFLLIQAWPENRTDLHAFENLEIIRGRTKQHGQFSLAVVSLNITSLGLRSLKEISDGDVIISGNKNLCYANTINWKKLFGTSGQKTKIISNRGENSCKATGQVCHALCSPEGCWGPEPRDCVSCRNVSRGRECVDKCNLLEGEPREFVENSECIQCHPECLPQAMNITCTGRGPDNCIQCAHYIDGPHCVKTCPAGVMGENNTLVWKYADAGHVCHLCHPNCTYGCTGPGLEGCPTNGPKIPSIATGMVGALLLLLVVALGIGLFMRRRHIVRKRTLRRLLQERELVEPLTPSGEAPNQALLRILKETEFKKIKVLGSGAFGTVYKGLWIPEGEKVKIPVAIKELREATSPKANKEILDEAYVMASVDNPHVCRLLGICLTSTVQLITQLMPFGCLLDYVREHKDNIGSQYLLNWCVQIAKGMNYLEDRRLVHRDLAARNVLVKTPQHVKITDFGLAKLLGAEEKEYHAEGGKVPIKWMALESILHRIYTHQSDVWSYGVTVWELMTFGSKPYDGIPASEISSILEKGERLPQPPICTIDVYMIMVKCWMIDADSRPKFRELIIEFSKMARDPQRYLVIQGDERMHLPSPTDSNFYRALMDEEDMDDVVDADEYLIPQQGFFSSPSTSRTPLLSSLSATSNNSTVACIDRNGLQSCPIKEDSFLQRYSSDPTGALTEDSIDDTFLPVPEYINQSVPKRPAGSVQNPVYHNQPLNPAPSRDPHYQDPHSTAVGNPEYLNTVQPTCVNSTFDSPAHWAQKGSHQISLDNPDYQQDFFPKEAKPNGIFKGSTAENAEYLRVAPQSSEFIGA

c1ccc(Nc2ncnc3[nH]ccc23)cc1 [Compound 1, N^4-phenyl-7H-pyrrolo[2,3-d]pyrimidine-4-amine]
IC50 (EGFR; 10 µM ATP, triplicate, read-out: EGFR IC50 ± SD): 254 ± 26 nM
IC50 (EGFR; 10 µM ATP/0.2 mg/ml Poly-Glu-Tyr, read-out: EGFR IC50 (dose-response curve, supplement)): 253 nM
EGFR % Activity Set1 (EGFR; Log[nM] 0): 103%
EGFR % Activity Set2 (EGFR; Log[nM] 0): 98%
EGFR % Activity Set3 (EGFR; Log[nM] 0): 103%
EGFR % Activity Set1 (EGFR; Log[nM] 1.0): 101%
EGFR % Activity Set2 (EGFR; Log[nM] 1.0): 110%
EGFR % Activity Set3 (EGFR; Log[nM] 1.0): 106%
EGFR % Activity Set1 (EGFR; Log[nM] 1.5): 92%
EGFR % Activity Set2 (EGFR; Log[nM] 1.5): 91%
EGFR % Activity Set3 (EGFR; Log[nM] 1.5): 94%
EGFR % Activity Set1 (EGFR; Log[nM] 2.0): 66%
EGFR % Activity Set2 (EGFR; Log[nM] 2.0): 71%
EGFR % Activity Set3 (EGFR; Log[nM] 2.0): 76%
EGFR % Activity Set1 (EGFR; Log[nM] 2.5): 39%
EGFR % Activity Set2 (EGFR; Log[nM] 2.5): 42%
EGFR % Activity Set3 (EGFR; Log[nM] 2.5): 40%
EGFR % Activity Set1 (EGFR; Log[nM] 3.0): 24%
EGFR % Activity Set2 (EGFR; Log[nM] 3.0): 22%
EGFR % Activity Set3 (EGFR; Log[nM] 3.0): 22%
EGFR % Activity Set1 (EGFR; Log[nM] 3.5): 9%
EGFR % Activity Set2 (EGFR; Log[nM] 3.5): 9%
EGFR % Activity Set3 (EGFR; Log[nM] 3.5): 9%
EGFR % Activity Set1 (EGFR; Log[nM] 4.0): 4%
EGFR % Activity Set2 (EGFR; Log[nM] 4.0): 5%
EGFR % Activity Set3 (EGFR; Log[nM] 4.0): 5%
EGFR % Activity Set1 (EGFR; Log[nM] 4.5): 2%
EGFR % Activity Set2 (EGFR; Log[nM] 4.5): 2%
EGFR % Activity Set3 (EGFR; Log[nM] 4.5): 2%
EGFR % Activity Set1 (EGFR; Log[nM] 5.0): 1%
EGFR % Activity Set2 (EGFR; Log[nM] 5.0): 1%
EGFR % Activity Set3 (EGFR; Log[nM] 5.0): 1%
IC50 (aurora A kinase (AURKA); 10 µM ATP, triplicate, read-out: AURKA IC50 ± SD): 5580 ± 660 nM
IC50 (aurora A kinase (AURKA); 10 µM ATP/0.2 mg/ml Kemptide, read-out: Aurora A IC50 (dose-response curve, supplement)): 5600 nM
Aurora A % Activity Set1 (aurora A kinase (AURKA); Log[nM] 0): 91%
Aurora A % Activity Set2 (aurora A kinase (AURKA); Log[nM] 0): 91%
Aurora A % Activity Set3 (aurora A kinase (AURKA); Log[nM] 0): 92%
Aurora A % Activity Set1 (aurora A kinase (AURKA); Log[nM] 1.0): 87%
Aurora A % Activity Set2 (aurora A kinase (AURKA); Log[nM] 1.0): 90%
Aurora A % Activity Set3 (aurora A kinase (AURKA); Log[nM] 1.0): 91%
Aurora A % Activity Set1 (aurora A kinase (AURKA); Log[nM] 1.5): 93%
Aurora A % Activity Set2 (aurora A kinase (AURKA); Log[nM] 1.5): 98%
Aurora A % Activity Set3 (aurora A kinase (AURKA); Log[nM] 1.5): 100%
Aurora A % Activity Set1 (aurora A kinase (AURKA); Log[nM] 2.0): 96%
Aurora A % Activity Set2 (aurora A kinase (AURKA); Log[nM] 2.0): 97%
Aurora A % Activity Set3 (aurora A kinase (AURKA); Log[nM] 2.0): 100%
Aurora A % Activity Set1 (aurora A kinase (AURKA); Log[nM] 2.5): 99%
Aurora A % Activity Set2 (aurora A kinase (AURKA); Log[nM] 2.5): 103%
Aurora A % Activity Set3 (aurora A kinase (AURKA); Log[nM] 2.5): 104%
Aurora A % Activity Set1 (aurora A kinase (AURKA); Log[nM] 3.0): 86%
Aurora A % Activity Set2 (aurora A kinase (AURKA); Log[nM] 3.0): 90%
Aurora A % Activity Set3 (aurora A kinase (AURKA); Log[nM] 3.0): 93%
Aurora A % Activity Set1 (aurora A kinase (AURKA); Log[nM] 3.5): 63%
Aurora A % Activity Set2 (aurora A kinase (AURKA); Log[nM] 3.5): 70%
Aurora A % Activity Set3 (aurora A kinase (AURKA); Log[nM] 3.5): 70%
Aurora A % Activity Set1 (aurora A kinase (AURKA); Log[nM] 4.0): 28%
Aurora A % Activity Set2 (aurora A kinase (AURKA); Log[nM] 4.0): 31%
Aurora A % Activity Set3 (aurora A kinase (AURKA); Log[nM] 4.0): 32%
Aurora A % Activity Set1 (aurora A kinase (AURKA); Log[nM] 4.5): 11%
Aurora A % Activity Set2 (aurora A kinase (AURKA); Log[nM] 4.5): 12%
Aurora A % Activity Set3 (aurora A kinase (AURKA); Log[nM] 4.5): 13%
Aurora A % Activity Set1 (aurora A kinase (AURKA); Log[nM] 5.0): 5%
Aurora A % Activity Set2 (aurora A kinase (AURKA); Log[nM] 5.0): 5%
Aurora A % Activity Set3 (aurora A kinase (AURKA); Log[nM] 5.0): 5%

From paper PMC6009956, “Design, synthesis and biological activity of N^4-phenylsubstituted-7H-pyrrolo[2,3-d]pyrimidin-4-amines as dual inhibitors of aurora kinase A and epidermal growth factor receptor kinase” (Journal of Enzyme Inhibition and Medicinal Chemistry, 2017)
